Test [1] has as its system CMV. The test can be described thus: microbe, parasite or virus in culture. The test is classed as cell-based. The following applies: Human betaherpesvirus 5, 72 h, read-out: CMV-Luc Cellular EC50, NN-NHDF cells, MOI 1, 72 hrs.
Test [2] has as its target CMV-polymerase (Human cytomegalovirus (strain AD169) (HHV-5) (Human herpesvirus 5), UniProt P08546). Kind of test: biochemical.
[3] abbreviates: read-out: CMV-polymerase Biochemical IC50.
Setting [4] is: CMV-polymerase Biochemical IC50.

This is an account of results in patent US12338220B2, “Antiviral pyrazolopiridinone compounds” (Novartis AG, priority 2019, dated 2025).

pEC50, pIC50: −log10 of the molar value. Where two headings read alike, the source gives them in different places.

By pEC50 is commonly meant −log10 of the EC50, conventionally taken in molar units. Broadly, the pIC50 is −log10 of the IC50, conventionally taken in molar units.

On to `Cn1nc(C(=O)NCc2ccc(C#N)cc2)c2c1C(=O)N(CC1(S(=O)(=O)N3CCC(O)CC3)CC1)CC2` [Example 125, N-(4-Cyanobenzyl)-6-((1-((4-hydroxypiperidin-1-yl)sulfonyl)cyclopropyl)methyl)-1-methyl-7-oxo-4,5,6,7-tetrahydro-1H-pyrazolo[3,4-c]pyridine-3-carboxamide], for which the negative-log EC50 (pEC50) in test [1] is 6.71. The pIC50 in test [2] (setting [3]) is 8.52.
Take `CO[C@@H]1CCN(CC(C)(C)S(=O)(=O)C2(CN3CCc4c(C(=O)NCc5ccc(C#N)cc5)nn(C)c4C3=O)CC2)C1` [Example 62, (R)-N-(4-cyanobenzyl)-6-((1-((1-(3-methoxypyrrolidin-1-yl)-2-methylpropan-2-yl)sulfonyl)cyclopropyl)methyl)-1-methyl-7-oxo-4,5,6,7-tetrahydro-1H-pyrazolo[3,4-c]pyridine-3-carboxamide]: the pEC50 in test [1] is 6.87. Besides, the pIC50 in test [2] (setting [3]) was 8.40.
For the molecule `Cn1nc(C(=O)NCc2ccc(C#N)cc2)c2c1C(=O)N(CC1(S(=O)(=O)C(C)(C)COC(F)(F)CN)CC1)CC2` [Example 85, 6-((1-((1-(2-Amino-1,1-difluoroethoxy)-2-methylpropan-2-yl)sulfonyl)cyclopropyl)methyl)-N-(4-cyanobenzyl)-1-methyl-7-oxo-4,5,6,7-tetrahydro-1H-pyrazolo[3,4-c]pyridine-3-carboxamide], the pEC50 in test [1] was 7.30. In addition, in test [2] (setting [4]), the pIC50 is 8.52.
As to `C[C@@H](NC(=O)c1nn(C)c2c1CCN(CC1(S(=O)(=O)C3CC3)CC1)C2=O)c1ccc(C#N)cc1` [Example 17, (R)-N-(1-(4-Cyanophenyl)ethyl)-6-((1-(cyclopropylsulfonyl)cyclopropyl)methyl)-1-methyl-7-oxo-4,5,6,7-tetrahydro-1H-pyrazolo[3,4-c]pyridine-3-carboxamide], the pEC50 in test [1] is < 5.00. Moreover, in test [2] (setting [3]), the pIC50 is 4.77.
For `C[C@H](N)C(=O)NCC(C)(C)S(=O)(=O)C1(CN2CCc3c(C(=O)NCc4ccc(C#N)cc4)nn(C)c3C2=O)CC1` [Example 76, (S)-6-((1-((1-(2-Aminopropanamido)-2-methylpropan-2-yl)sulfonyl)cyclopropyl)methyl)-N-(4-cyanobenzyl)-1-methyl-7-oxo-4,5,6,7-tetrahydro-1H-pyrazolo[3,4-c]pyridine-3-carboxamide] the same measures were 7.08 and 8.00.
The matching figures for `COc1cccc(NS(=O)(=O)C2(CN3CCc4c(C(=O)NCc5ccc(C#N)cc5)nn(C)c4C3=O)CC2)n1` [Example 163, N-(4-Cyanobenzyl)-6-((1-(N-(6-methoxypyridin-2-yl)sulfamoyl)cyclopropyl)methyl)-1-methyl-7-oxo-4,5,6,7-tetrahydro-1H-pyrazolo[3,4-c]pyridine-3-carboxamide]: 7.17 and 8.70.
The matching figures for `Cn1nc(C(=O)NCc2ccc(C#N)cc2)c2c1C(=O)N(CC1(S(C)(=O)=O)CC1)CC2` [Example 21, N-(4-Cyanobenzyl)-1-methyl-6-((1-(methylsulfonyl)cyclopropyl)methyl)-7-oxo-4,5,6,7-tetrahydro-1 H-pyrazolo[3,4-c]pyridine-3-carboxamide]: 6.83 and 8.05.
In the case of `CNC(=O)C(C)(C)S(=O)(=O)C1(CN2CCc3c(C(=O)NCc4ccc(Cl)cc4)nn(C)c3C2=O)CC1` [Example 110, N-(4-Chlorobenzyl)-1-methyl-6-((1-((2-methyl-1-(methylamino)-1-oxopropan-2-yl)sulfonyl)cyclopropyl)methyl)-7-oxo-4,5,6,7-tetrahydro-1H-pyrazolo[3,4-c]pyridine-3-carboxamide], in test [1], the pEC50 is 6.66. Besides, the pIC50 in test [2] (setting [4]) is 8.30.
In the case of `Cn1nc(C(=O)NCc2ccc(C#N)cc2)c2c1C(=O)N(CC1(S(=O)(=O)N3CCC(C)(O)C3)CC1)CC2` (single isomer, unassigned) [Example 130, (R)- or (S)-N-(4-Cyanobenzyl)-6-((1-((3-hydroxy-3-methylpyrrolidin-1-yl)sulfonyl)cyclopropyl)methyl)-1-methyl-7-oxo-4,5,6,7-tetrahydro-1H-pyrazolo[3,4-c]pyridine-3-carboxamide], the pEC50 in test [1] was 6.79. In addition, the pIC50 in test [2] (setting [3]) is 8.15.
In the case of `Cn1nc(C(=O)N[C@H](CO)c2ccc(Cl)cc2)c2c1C(=O)N(CC1(S(=O)(=O)C3CC3)CC1)CC2` [Example 19, (S)-N-(1-(4-Chlorophenyl)-2-hydroxyethyl)-6-((1-(cyclopropylsulfonyl)cyclopropyl)methyl)-1-methyl-7-oxo-4,5,6,7-tetrahydro-1H-pyrazolo[3,4-c]pyridine-3-carboxamide], the pEC50 in test [1] is < 5.00. Moreover, in test [2] (setting [3]), the pIC50 was 7.26.
The matching figures for `C[C@@H](N)C(=O)NCC(C)(C)S(=O)(=O)C1(CN2CCc3c(C(=O)NCc4ccc(C#N)cc4)nn(C)c3C2=O)CC1` [Example 75, (R)-6-((1-((1-(2-Aminopropanamido)-2-methylpropan-2-yl)sulfonyl)cyclopropyl)methyl)-N-(4-cyanobenzyl)-1-methyl-7-oxo-4,5,6,7-tetrahydro-1H-pyrazolo[3,4-c]pyridine-3-carboxamide]: 7.33 and 8.15.
The matching figures for `Cn1nc(C(=O)NCc2ccc(C#N)cc2)c2c1C(=O)N(CC1(S(=O)(=O)C(C)(C)CNCCO)CC1)CC2` [Example 69, N-(4-Cyanobenzyl)-6-((1-((1-((2-hydroxyethyl)amino)-2-methylpropan-2-yl)sulfonyl)cyclopropyl)methyl)-1-methyl-7-ox0-4,5,6,7-tetrahydro-1H-pyrazolo[3,4-c]pyridine-3-carboxamide]: 7.24 and 9.00.
The matching figures for `CC(C)(O)Cn1nc(C(=O)NCc2ccc(Cl)cc2)c2c1C(=O)N(CC1(S(C)(=O)=O)CC1)CC2` [Example 231, N-(4-Chlorobenzyl)-1-(2-hydroxy-2-methylpropyl)-6-((1-(methylsulfonyl)cyclopropyl)methyl)-7-oxo-4,5,6,7-tetrahydro-1H-pyrazolo[3,4-c]pyridine-3-carboxamide]: 7.06 and 8.15.
For `Cn1nc(C(=O)NCc2ccc(Cl)cc2)c2c1C(=O)N(CC1(S(=O)(=O)C(C)(C)[C@@H](O)CO)CC1)CC2` [Example 190, (S)—N-(4-Chlorobenzyl)-6-((1-((3,4-dihydroxy-2-methylbutan-2-yl)sulfonyl)cyclopropyl)methyl)-1-methyl-7-oxo-4,5,6,7-tetrahydro-1H-pyrazolo[3,4-c]pyridine-3-carboxamide], in test [1], the pEC50 was 7.72. In addition, in test [2] (setting [3]), the negative logarithm of the IC50 (pIC50) was 9.00.
The matching figures for `O=C(NCc1ccc(Cl)cc1)c1nn(CCO)c2c1CCN(CC1(S(=O)(=O)C3CC3)CC1)C2=O` [Example 218, N-(4-Chlorobenzyl)-6-((1-(cyclopropylsulfonyl)cyclopropyl)methyl)-1-(2-hydroxyethyl)-7-oxo-4,5,6,7-tetrahydro-1H-pyrazolo[3,4-c]pyridine-3-carboxamide]: 7.38 and 8.22.
For `Cn1nc(C(=O)NCc2ccc(C#N)cc2)c2c1C(=O)N(CC1(S(=O)(=O)C(C)(C)CN3CC4CC3CO4)CC1)CC2` (centres unmarked) [Example 64, 6-((1-((1-(2-Oxa-5-azabicyclo[2.2.1]heptan-5-yl)-2-methylpropan-2-yl)sulfonyl)cyclopropyl)methyl)-N-(4-cyanobenzyl)-1-methyl-7-oxo-4,5,6,7-tetrahydro-1H-pyrazolo[3,4-c]pyridine-3-carboxamide] the same measures were 6.97 and 8.40.
`CC(C)(CO)S(=O)(=O)C1(CN2CCc3c(C(=O)NCc4ccc(C#N)cc4)n[nH]c3C2=O)CC1` [Example 49, N-(4-Cyanobenzyl)-6-((1-((1-hydroxy-2-methylpropan-2-yl)sulfonyl)cyclopropyl)methyl)-7-oxo-4,5,6,7-tetrahydro-1H-pyrazolo[3,4-c]pyridine-3-carboxamide]: in test [1], the pEC50 was 7.24. In test [2] (setting [4]), this molecule showed a pIC50 of 8.40.
For `CCC(=O)Cn1nc(C(=O)NCc2ccc(C#N)cc2)c2c1C(=O)N(CC1(S(=O)(=O)C3CC3)CC1)CC2` [Example 227, N-(4-Cyanobenzyl)-6-((1-(cyclopropylsulfonyl)cyclopropyl)methyl)-7-oxo-1-(2-oxobutyl)-4,5,6,7-tetrahydro-1H-pyrazolo[3,4-c]pyridine-3-carboxamide] the same measures were 7.55 and 9.00.
For `Cn1nc(C(=O)NCc2ccc(C#N)cc2)c2c1C(=O)N(CC1(S(=O)(=O)C(C)(C)COCC(C)(C)N)CC1)CC2` [Example 103, 6-((1-((1-(2-Amino-2-methylpropoxy)-2-methylpropan-2-yl)sulfonyl)cyclopropyl)methyl)-N-(4-cyanobenzyl)-1-methyl-7-oxo-4,5,6,7-tetrahydro-1H-pyrazolo[3,4-c]pyridine-3-carboxamide] the same measures were 7.39 and 8.05.
Regarding `Cn1nc(C(=O)NCc2ccc(C#N)cc2)c2c1C(=O)N(CC1(S(=O)(=O)N3CCNCC3)CC1)CC2` [Example 133, N-(4-Cyanobenzyl)-1-methyl-7-oxo-6-((1-(piperazin-1-ylsulfonyl)cyclopropyl)methyl)-4,5,6,7-tetrahydro-1H-pyrazolo[3,4-c]pyridine-3-carboxamide], the pEC50 in test [1] is 7.01. Besides, the pIC50 in test [2] (setting [3]) was 7.70.
Turning to `Cn1nc(-c2cc(Cc3ccc(C#N)cc3)on2)c2c1C(=O)N(CC1(S(=O)(=O)C3CC3)CC1)CC2` [Example 34, 4-((3-(6-((1-(Cyclopropylsulfonyl)cyclopropyl)methyl)-1-methyl-7-oxo-4,5,6,7-tetrahydro-1H-pyrazolo[3,4-c]pyridin-3-yl)isoxazol-5-yl)methyl)benzonitrile], the pEC50 in test [1] was 8.00. This molecule also gave a negative-log IC50 (pIC50) in test [2] (setting [4]) of 9.00.
Take `CC(C)(O)Cn1nc(C(=O)NCc2ccc(C#N)cc2)c2c1C(=O)N(CC1(S(=O)(=O)C3CC3)CC1)CC2` [Example 230, N-(4-Cyanobenzyl)-6-((1-(cyclopropylsulfonyl)cyclopropyl)methyl)-1-(2-hydroxy-2-methylpropyl)-7-oxo-4,5,6,7-tetrahydro-1H-pyrazolo[3,4-c]pyridine-3-carboxamide]: the pEC50 in test [1] was 7.51. The negative logarithm of the IC50 (pIC50) in test [2] (setting [3]) is 9.00.
